Experimental data from ChEMBL document CHEMBL5046281, “N-Aryl Mercaptopropionamides as Broad-Spectrum Inhibitors of Metallo-β-Lactamases” (J Med Chem, 2022).
Activity calls are given as the source filed them. The calls are words filed in the database; no cut-off is given here.

Assays:
[1] = Lipophilicity, log D of the compound at pH 7.4 by HPLC-MS analysis; type: physicochemical; settings: buffer
BlaVIM-1 = BlaVIM-1 (Escherichia coli, UniProt Q8GDC1); assay: Inhibition of Escherichia coli VIM-1 using fluorocillin as substrate incubated for 30 mins by fluorescence based assay
[2] = Inhibition of Escherichia coli IMP-7 using fluorocillin as substrate incubated for 30 mins by fluorescence based assay
[3] = Inhibition of Escherichia coli NDM-1 using fluorocillin as substrate incubated for 30 mins by fluorescence based assay
Escherichia coli [4] = assay: Antibacterial activity against IMP-1 expressing Escherichia coli isolates assessed as inhibition of bacterial growth by microdilution method; type: functional, organism-based
Escherichia coli [5] = assay: Antibacterial activity against VIM-1 expressing Escherichia coli isolates assessed as inhibition of bacterial growth by microdilution method; type: functional, organism-based
Escherichia coli [6] = assay: Antibacterial activity against NDM-1 expressing Escherichia coli isolates assessed as inhibition of bacterial growth by microdilution method; type: functional, organism-based
Pseudomonas aeruginosa [7] = assay: Antibacterial activity against VIM-2 expressing Pseudomonas aeruginosa isolates assessed as inhibition of bacterial growth by microdilution method; type: functional, organism-based
[8] = molecular target: Disintegrin and metalloproteinase domain-containing protein 17 (Homo sapiens) (UniProt P78536); assay: Inhibition of human TACE at 100 uM relative to control
Sequence of Disintegrin and metalloproteinase domain-containing protein 17 (Homo sapiens) (P78536 whole entry, the tested form may be a part): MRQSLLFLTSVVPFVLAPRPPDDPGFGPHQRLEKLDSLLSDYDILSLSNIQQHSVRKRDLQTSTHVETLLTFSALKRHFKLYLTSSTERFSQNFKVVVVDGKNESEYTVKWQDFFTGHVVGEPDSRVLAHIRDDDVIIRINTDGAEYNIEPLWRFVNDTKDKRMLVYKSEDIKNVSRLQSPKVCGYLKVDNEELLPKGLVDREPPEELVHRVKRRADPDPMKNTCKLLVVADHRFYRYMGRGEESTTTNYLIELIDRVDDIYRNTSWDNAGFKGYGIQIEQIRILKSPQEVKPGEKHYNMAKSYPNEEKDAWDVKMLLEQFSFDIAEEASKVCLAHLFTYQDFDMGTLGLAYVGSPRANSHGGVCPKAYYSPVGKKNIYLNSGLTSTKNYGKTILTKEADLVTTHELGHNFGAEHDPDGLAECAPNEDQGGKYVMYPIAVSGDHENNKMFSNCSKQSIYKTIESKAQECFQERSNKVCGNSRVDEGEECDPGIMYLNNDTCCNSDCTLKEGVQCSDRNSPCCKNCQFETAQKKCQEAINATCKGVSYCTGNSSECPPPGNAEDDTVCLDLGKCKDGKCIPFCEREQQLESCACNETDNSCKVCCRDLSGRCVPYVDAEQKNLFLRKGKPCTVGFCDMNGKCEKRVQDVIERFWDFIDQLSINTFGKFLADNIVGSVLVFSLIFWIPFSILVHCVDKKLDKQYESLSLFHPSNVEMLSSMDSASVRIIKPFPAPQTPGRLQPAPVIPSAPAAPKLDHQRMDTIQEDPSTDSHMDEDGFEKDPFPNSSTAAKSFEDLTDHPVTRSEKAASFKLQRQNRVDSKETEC

[9] = molecular target: Stromelysin-1 (Homo sapiens) (UniProt P08254); assay: Inhibition of human MMP-3 at 100 uM relative to control
Sequence of Stromelysin-1 (Homo sapiens) (P08254 100-477 limits assumed): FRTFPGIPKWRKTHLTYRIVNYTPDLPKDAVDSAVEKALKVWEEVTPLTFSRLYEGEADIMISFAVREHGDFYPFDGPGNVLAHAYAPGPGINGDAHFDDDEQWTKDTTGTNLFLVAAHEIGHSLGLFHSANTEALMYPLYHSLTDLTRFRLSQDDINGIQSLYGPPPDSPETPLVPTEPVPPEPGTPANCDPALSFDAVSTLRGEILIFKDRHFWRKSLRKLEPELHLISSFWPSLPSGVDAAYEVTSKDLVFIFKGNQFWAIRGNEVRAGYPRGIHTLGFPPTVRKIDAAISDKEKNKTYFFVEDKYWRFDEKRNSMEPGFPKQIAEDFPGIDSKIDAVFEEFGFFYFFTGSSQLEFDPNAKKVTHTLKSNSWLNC

[10] = molecular target: T1, Matrilysin (Homo sapiens) (UniProt P09237); assay: Inhibition of human MMP-7 at 100 uM relative to control
T1 sequence (whole entry): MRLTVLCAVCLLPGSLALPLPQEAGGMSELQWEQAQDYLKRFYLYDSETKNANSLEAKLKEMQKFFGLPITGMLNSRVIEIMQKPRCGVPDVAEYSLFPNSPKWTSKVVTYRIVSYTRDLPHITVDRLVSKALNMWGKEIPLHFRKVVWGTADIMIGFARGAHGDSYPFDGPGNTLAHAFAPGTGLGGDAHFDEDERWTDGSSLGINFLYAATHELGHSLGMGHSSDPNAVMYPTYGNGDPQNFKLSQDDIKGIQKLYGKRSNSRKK

[11] = Toxicity in zebrafish embryo assessed as maximum tolerated concentration measured up to 120 hrs; design: species or system Danio rerio; settings: in vivo, read-out: MTC
HepG2 = assay: Cytotoxicity against human HepG2 cells assessed as reduction in cell viability at 100 uM relative to control; type: toxicity, cell-based; settings: hepg2, 100 µM
[12] = molecular target: T2, Matrix metalloproteinase-14 (Homo sapiens, UniProt P50281); assay: Inhibition of human MMP-14 at 100 uM relative to control
HEK293 = assay: Cytotoxicity against human HEK293 cells assessed as reduction in cell viability at 100 uM relative to control; type: toxicity, cell-based; settings: hek293, 100 µM
A549 = assay: Cytotoxicity against human A549 cells assessed as reduction in cell viability at 100 uM relative to control; type: toxicity, cell-based; settings: a549, 100 µM
[13] = molecular target: T3, Interstitial collagenase (Homo sapiens) (UniProt P03956); assay: Inhibition of human MMP-1 at 100 uM relative to control
T3 sequence (whole entry): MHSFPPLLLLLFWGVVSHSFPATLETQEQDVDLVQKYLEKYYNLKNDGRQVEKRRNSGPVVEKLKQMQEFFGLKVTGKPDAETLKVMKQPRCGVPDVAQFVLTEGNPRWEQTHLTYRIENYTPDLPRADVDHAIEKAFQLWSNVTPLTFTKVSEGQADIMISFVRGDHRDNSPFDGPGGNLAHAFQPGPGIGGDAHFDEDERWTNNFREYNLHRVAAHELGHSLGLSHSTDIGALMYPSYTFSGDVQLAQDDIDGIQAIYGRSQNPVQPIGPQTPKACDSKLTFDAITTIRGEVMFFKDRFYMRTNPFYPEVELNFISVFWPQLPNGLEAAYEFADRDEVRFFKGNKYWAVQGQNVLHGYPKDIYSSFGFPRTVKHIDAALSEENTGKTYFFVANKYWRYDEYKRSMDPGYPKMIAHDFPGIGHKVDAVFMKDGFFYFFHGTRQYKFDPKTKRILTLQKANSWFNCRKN

[14] = molecular target: Neutrophil collagenase (Homo sapiens) (UniProt P22894); assay: Inhibition of human MMP-8 at 100 uM relative to control
Sequence of Neutrophil collagenase (Homo sapiens) (P22894 101-467 limits assumed): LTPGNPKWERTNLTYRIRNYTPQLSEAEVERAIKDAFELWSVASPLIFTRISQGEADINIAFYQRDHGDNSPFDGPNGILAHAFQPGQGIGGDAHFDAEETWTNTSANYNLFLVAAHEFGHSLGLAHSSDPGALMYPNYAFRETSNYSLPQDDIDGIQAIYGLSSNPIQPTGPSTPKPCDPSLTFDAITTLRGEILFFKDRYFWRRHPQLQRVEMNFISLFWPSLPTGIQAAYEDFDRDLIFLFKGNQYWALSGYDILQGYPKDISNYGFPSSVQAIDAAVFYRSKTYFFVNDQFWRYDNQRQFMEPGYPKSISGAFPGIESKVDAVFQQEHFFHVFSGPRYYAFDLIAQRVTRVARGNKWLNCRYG

[15] = molecular target: T4, 72 kDa type IV collagenase (Homo sapiens, UniProt P08253); assay: Inhibition of human MMP-2 at 100 uM relative to control
Target sequence in this assay (P08253 110-660 limits assumed): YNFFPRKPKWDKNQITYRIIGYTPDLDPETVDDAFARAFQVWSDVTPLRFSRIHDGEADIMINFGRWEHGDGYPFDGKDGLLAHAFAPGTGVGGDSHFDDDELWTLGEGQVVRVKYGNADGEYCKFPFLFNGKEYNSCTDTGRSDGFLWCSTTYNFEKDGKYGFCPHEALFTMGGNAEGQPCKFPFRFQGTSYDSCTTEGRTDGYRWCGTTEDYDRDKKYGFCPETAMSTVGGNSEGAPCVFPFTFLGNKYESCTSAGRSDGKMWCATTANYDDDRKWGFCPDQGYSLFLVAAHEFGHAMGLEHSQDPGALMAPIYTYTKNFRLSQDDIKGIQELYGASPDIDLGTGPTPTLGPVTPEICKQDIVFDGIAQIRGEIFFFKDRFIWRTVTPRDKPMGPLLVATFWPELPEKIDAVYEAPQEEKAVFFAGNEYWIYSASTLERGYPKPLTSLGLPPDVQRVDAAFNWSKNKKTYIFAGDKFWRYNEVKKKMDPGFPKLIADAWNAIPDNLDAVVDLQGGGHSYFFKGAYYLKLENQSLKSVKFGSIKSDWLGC

Pseudomonas aeruginosa [16] = assay: Inhibition of Pseudomonas aeruginosa quorum sensing system LasB at 100 uM
[17] = molecular target: T2, Matrix metalloproteinase-14; assay: Inhibition of human MMP-14
[18] = molecular target: T4, 72 kDa type IV collagenase; assay: Inhibition of human MMP-2
Target sequence in this assay (P08253 whole entry): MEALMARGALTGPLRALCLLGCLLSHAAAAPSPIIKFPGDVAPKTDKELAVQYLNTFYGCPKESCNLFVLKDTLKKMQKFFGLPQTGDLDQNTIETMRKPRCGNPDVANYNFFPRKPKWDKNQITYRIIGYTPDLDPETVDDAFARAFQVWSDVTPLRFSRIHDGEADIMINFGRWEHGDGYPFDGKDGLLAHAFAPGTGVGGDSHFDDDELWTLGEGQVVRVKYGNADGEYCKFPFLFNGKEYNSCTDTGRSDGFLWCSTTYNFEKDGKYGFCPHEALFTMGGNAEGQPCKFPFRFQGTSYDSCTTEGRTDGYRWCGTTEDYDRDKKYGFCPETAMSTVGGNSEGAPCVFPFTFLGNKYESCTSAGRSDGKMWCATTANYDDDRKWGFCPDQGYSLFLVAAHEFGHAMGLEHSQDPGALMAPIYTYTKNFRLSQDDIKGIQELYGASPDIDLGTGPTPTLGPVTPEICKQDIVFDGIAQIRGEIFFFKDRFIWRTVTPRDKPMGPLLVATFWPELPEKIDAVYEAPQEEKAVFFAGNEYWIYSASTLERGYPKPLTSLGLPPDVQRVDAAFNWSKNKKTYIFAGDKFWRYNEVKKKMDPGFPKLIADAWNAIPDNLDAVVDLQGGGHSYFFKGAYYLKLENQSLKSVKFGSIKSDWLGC

SMILES | logD [1] | IC50 (BlaVIM-1) [nM] | IC50 [2] [nM] | IC50 [3] [nM] | Activity (Escherichia coli [4]) | Activity (Escherichia coli [5]) | Activity (Escherichia coli [6]) | Activity (Pseudomonas aeruginosa [7]) | also measured
CN(C)S(=O)(=O)c1ccc(NC(=O)CCS)cc1 | 1.7 | 800 | 2100 | 2800 | inactive | inactive | inactive | inactive | 
CC(=O)c1ccc(NC(=O)CCS)cc1 | 1.35 | 400 | 5500 | 1500 |  |  |  |  | 
N=C(N)NS(=O)(=O)c1ccc(NC(=O)CCS)cc1 | -0.5 | 500 | 3300 | 2100 | inactive | inactive | inactive | inactive | inhibition [8]: 32%; inhibition [9]: < 10%; inhibition [10]: < 10%; MNTC at 120 h [11]: ≥ 150 µM; Activity (HepG2): < 10%; inhibition [12]: < 10%; Activity (HEK293): < 10%; Activity (A549): < 10%; inhibition [13]: < 10%; inhibition [14]: < 10%; inhibition [15]: < 10%
O=C(CCS)Nc1ccccc1O | 1.14 | 200 | 3300 | 2200 |  |  |  |  | 
NCc1cccc(NC(=O)CCS)c1 | 0.28 | 1000 | 5100 | 5500 | inactive | inactive | inactive | inactive | 
COC(=O)c1ccc(NC(=O)CCS)cc1 | 1.95 | 100 | 1100 | 2800 |  |  |  |  | inhibition (Pseudomonas aeruginosa [16]): Active
CN1CCN(Cc2ccc(NC(=O)CCS)cc2)CC1 | 0.28 | 1500 | 5800 | 6400 |  |  |  |  | 
O=C(CCS)Nc1ccc(S(=O)(=O)N2CCOCC2)cc1 | 1.52 | 1700 | 7100 | 2500 |  |  |  |  | 
CS(=O)(=O)Nc1cccc(NC(=O)CCS)c1 | 0.62 | 1300 |  | 2200 |  |  |  |  | 
O=C(CCS)Nc1cccc(O)c1 | 0.41 | 100 | 1400 | 2700 |  |  |  |  | 
COC(=O)c1ccccc1NC(=O)CCS | 1.95 | 10000 | 1000 | 1300 |  |  |  |  | 
O=C(CCS)Nc1ccc(Cl)c(Cl)c1 | 5.34 | 100 | 5000 | 1300 | inactive | inactive | inactive | inactive | inhibition [9]: < 10%; inhibition [10]: < 10%; Activity (HepG2): < 10%; inhibition [12]: 18%; Activity (HEK293): < 10%; inhibition (Pseudomonas aeruginosa [16]): Active; Activity (A549): < 10%; inhibition [13]: < 10%; inhibition [14]: 22%; inhibition [15]: 14%
O=C(CCS)Nc1ccc(C(=O)O)cc1 | -1.65 | 600 | > 10000 | 1000 |  |  |  |  | 
Nc1ccc(NC(=O)CCS)cc1 | -0.31 | 500 | 2100 | 6500 |  |  |  |  | 
O=C(CCS)Nc1ccc(O)cc1 | 0.32 | 200 | 3400 | 4000 |  |  |  |  | 
O=C(CCS)Nc1ccccc1C(=O)O | -0.92 | 2200 | 4100 | 3400 | inactive | inactive | inactive | inactive | inhibition [8]: < 10%; inhibition [9]: 17%; inhibition [10]: 11%; MNTC at 120 h [11]: ≥ 150 µM; Activity (HepG2): < 10%; inhibition [12]: 77%; Activity (HEK293): < 10%; IC50 [17]: 12000 nM; Activity (A549): < 10%; inhibition [13]: < 10%; inhibition [14]: < 10%; inhibition [15]: < 10%
O=C(CCS)Nc1cccc(S(=O)(=O)O)c1 | -1.35 | 1600 | 3600 | 1300 | inactive | inactive | inactive | inactive | 
O=C(O)[C@H]1CCCCN1C(=O)C(CS)Cc1ccccc1 (stereo partly drawn) | 0.49 | 900 | 4600 | 700 |  |  |  |  | 
CCN(CC)Cc1cccc(NC(=O)CCS)c1 | 0.24 | 800 | 5500 | 6500 |  |  |  |  | 
O=C(CCS)Nc1cccc([N+](=O)[O-])c1 | 2.21 | 100 | 2600 | 2500 |  |  |  |  | 
NC(=O)NS(=O)(=O)c1ccc(NC(=O)CCS)cc1 | -1.69 | 2000 | 12600 | 8600 | inactive | inactive | inactive | inactive | IC50 [18]: 64000 nM; inhibition [8]: < 10%; inhibition [9]: < 10%; inhibition [10]: 32%; MNTC at 120 h [11]: ≥ 150 µM; Activity (HepG2): < 10%; inhibition [12]: 73%; Activity (HEK293): < 10%; inhibition (Pseudomonas aeruginosa [16]): Active; IC50 [17]: 31000 nM; Activity (A549): < 10%; inhibition [13]: < 10%; inhibition [14]: < 10%; inhibition [15]: 88%
CS(=O)(=O)Nc1ccccc1NC(=O)CCS | 1.1 | 1900 | > 10000 | 7000 |  |  |  |  | 
